Data as given in patent US20210393549A1, “New use of R-enantiomer of adrenergic beta 2 receptor agonists for treatment of inflammatory bowel disease and its extra intestinal manifestations” (priority 2018, published 2021).
“Also recorded” adds a separate entry of the source. Like-named read-outs stand apart in the source and are kept apart here.

Legend:
TNBS-induced colitis = TNBS-induced colitis (model for Crohn's disease); assay type: in vivo, Male mice
From the text: Male mice colitis was induced by rectal co-administration of ethanol and TNBS (Trinitrobenzenesulfonic acid). Severe colitis in mice that was characterized by weight loss and diarrhea. Histologically there were loss of normal structures, visible discrete epithelioid granuloma, multiple erosive lesions, massive transmural inflammation infiltration of lymphocytes, and the loss of goblet cells. […] There was significant alleviation of lesions, few inflammatory infiltration with growing crypts and recovery mucosa epithelia along the column. […] In addition, in TNBS treated colitis mice, there were perianal symptoms: erythema, abscesses and ulcers found in some mice, which may lead to perianal fissures or fistulas. […] The therapeutically effects of R-salbuterol, R-clenbuterol and R-bambuterol on the symptoms in TNBS induced Crohn's disease has never been reported in prior art.

[1] = system: hemorrhoid inflammation symptoms; experiment: Hemorrhoid inflammation symptoms, oral or topical; assay type: in vivo; settings: given either orally or topically
From the text: These perianal pathological changes somewhat similar to hemorrhoid inflammation symptoms. […] This new used of beta2 agonists in treatment of hemorrhoid inflammation symptoms has never been disclosed in prior art.

[2] = system: DSS induced acute colitis; settings: for colon histology (H&E), in words: Example 1, compared with untreated DSS mice; for Hist score (histological score): epithelium 0-4 plus infiltration 0-4; for Hist score (histological score) / Col Length (colon length): tenth day; for Hist score (histological score) / FOB (fecal occult blood) / Weight / DAI (disease active index) / Col Length (colon length): 1 mg/kg (R-B, S-B 10 mg/kg; RS-C 2 mg/kg); for Hist score (histological score) / FOB (fecal occult blood) / Weight / Col Length (colon length): mean ± SD; for FOB (fecal occult blood): grade 0, 2, 4; for FOB (fecal occult blood) / Weight / Col Length (colon length): i.g. daily 8 days; for DAI (disease active index): score 0 to 12, i.g. daily 8 days from 2nd day of DSS, n=5
From the text: In one embodiment, IBD was induced in mice by add DSS into drink water for 7 days. […] (Cooper, S. et al., Clinic pathologic study of dextran sulfate sodium experimental murine colitis, Laboratory Investigation, vol. 69, no. 2, p. 238-249, 1993)
The mice were scarified at day 10th for anatomy and histology evaluations. […] Each of the above histological features was scored individually and added together which is then collectively expressed as “histological score”, for quantitative evaluation (Cooper, S. et al., above).
Male C57BL mice (8-10 weeks, 18-20 g) were grouped into control (drinking water only), DSS and DSS plus treatment groups (n=5). Acute colitis was induced by feeding mice with 2% (w/v) dextran sulfate sodium (DSS) (molecular mass 36-50 kDa) added to the drinking water given ad libitum for 7 days. At the end of seventh day, DSS was removed and animals received only drinking water for 2 days. The animals were euthanized for anatomical and histological examination at the tenth day after DSS ingestion.
R-salbutamol (R-S) (1 mg/kg, S-salbutamol (S-S) (1 mg/kg), R-terbutaline (R-T) (1 mg/kg), S-terbutaline (S-T) (1 mg/kg), R-bambuterol (10 mg/kg), S-bambuterol (S-B) (10 mg/kg), R-clenbuterol (R-C) (1 mg/kg), RS-clenbuterol (RS-C) (2 mg/kg) were administered i.g. daily, starting from the 2nd day of DSS induction for consecutive 8 days. Dexamethasone (Dex), 1 mg/kg) was used as a reference drug.
Evaluation of disease symptoms and histological changes Disease activity index (DAI): Animals were monitored daily for weight, water/food consumption, morbidity, stool consistency and fecal blood. […] The colon length was recorded as an indicator of inflammation. The entire colon was cut open longitudinally and gently flushed with sterile phosphate-buffered saline (PBS) to remove any traces of feces for pathology preparation. Colon segments were fixed in 10% neutral buffered formalin. Tissues were embedded in paraffin, sectioned, mounted on slides. H&E-stained paraffin section images were acquired. Pathological evaluation was conducted in a blinded manner.
Histological Score: the scores were given as follows: epithelium, 0=normal morphology, 1=loss of goblet cells, 2=loss of goblet cells in large areas, 3=loss of crypts, and 4=loss of crypts in large areas; and inflammation cells infiltration, 0=no infiltrate, 1=infiltrate around the crypt basis, 2=infiltrate reaching the muscularis mucosae, 3=extensive infiltration reaching the muscularis mucosae and thickening of the mucosa with abundant edema, and 4=infiltration of the submucosa. Data were presented as mean±the standard deviation (SD).

[3] = system: DSS induced sub-acute colitis; assay type: in vivo; parameters: DAI (disease active index) / FOB (fecal occult blood) / Hist score (histological score): scale not given here; Weight / Col Length (colon length): unit not given here; settings: for Col Length (colon length) / DAI (disease active index) / FOB (fecal occult blood) / Hist score (histological score) / Weight: one week treatment, evaluation at 23rd day, R-S, S-S 1 mg/kg, R-B, S-B 10 mg/kg; for fecal occult blood, in words: day 14th and 22nd
From the text: This invention also disclosed the used of R-salbutamol for treatment of sub acute or chronic phases of IBD. In one embodiment, IBD was induced by DSS as mentioned above, along with the treatment of R-salbutamol, at day 7th, DSS was removed and replaced with drinking water for additional 2 weeks. The disease active index (DAI) of mice was examined and evaluated periodically. The mice were scarified for pathological and histological evaluations at day of 23rd. In DSS induce IBD mice, there were significant loss of weight and fecal occult blood at day 14th and 22nd. The overall condition of colitis was severe although there was slightly improvement comparing the day 7th. The colon-rector length was significant shortened, and histological score were significant higher from control. In mice with DSS induced colitis, there were significant mononuclear leucocytes infiltration, few newly grew crypts with architectural disarray, denegation of epithelia, mucosa aberrant. There was also deep mucosal lymphocytosis, destruction of lamina propria and sometimes, transmural inflammation.
Same as example 1, except • 1), Three weeks' study with one week treatment.
DSS and all the treatment was removed and replaced with drinking water at the end of 1st week. Mice were given drink water and food ad libitum for additional 2 weeks.

[4] = system: knee joints (articular cartilage, meniscus); experiment: Damage of knee joints in DSS induced IBD mice; assay type: in vivo; settings: compared with untreated DSS mice
From the text: In one embodiment, in DSS induced IBD mice, there was also a damage of knee joints. The articular cartilage structure became thinner and partially destroyed. The chondrocytes were degenerated, decreased and clustered. The meniscuses were damaged and lost its structural integrity. In X-ray, the layer of articular cartilage was thinner and bone structure was decreased. […] The articular cartilage and bone structure increased toward normal.

[5] = system: IMQ-induced Psoriasis-Like Skin lesions; experiment: IMQ-induced psoriasis-like skin lesions; assay type: in vivo, mice; settings: dorsal skin, IMQ-induced psoriasis mice
Procedure: Mice were divided into control, psoriasis and psoriasis plus treatment groups, (n=8 in each group). Psoriasis were induced by topical application of imiquimod cream (62.5 mg) on shaved dorsal skin for seven consecutive days. Vaseline was used in control group. There were four treatment groups: three doses of R-salbutamol (R-Sal) (0.5 mg, 1 mg, 2 mg/kg) and Dexamethasone (1 mg/kg) as positive control. All the treatments and same volume of saline (in control group) were administered orally. In some experiment, R-bambuterol (long-last beta2 agonist) was used as an additional treatment group (n=3). Psoriasis Area Severity Index were used for evaluation. Each of the scores for erythema, scaling and skin thickness were measured separately and then group together as a calculative score. (FIG. 2)

[6] = system: DSS induced sub-acute colitis; experiment: Prolonged (two weeks) treatment in DSS induced sub-acute colitis; assay type: in vivo, mice; settings: evaluation at 23rd day, salbutamol 1 mg/kg, bambuterol 10 mg/kg
From the text: Same as example 2, except. 1), Two Weeks Treatment within a Three Weeks of Study
DSS was removed from drinking water at the end of 1st week. The treatments were started at 1st day for consecutive 14 days (2 weeks). Only drinking water given for the 3rd week. The evaluation and examination were made at 23rd day as did in example 1.

psoriasis and eczema = experiment: Oral administration in rats, psoriasis and eczema; assay type: in vivo
[7] = system: acne, maliaria, hives and eczema; experiment: Topical use on acne, maliaria, hives and eczema; assay type: in vivo
[8] = sub-acute or chronic DSS colitis, compared with untreated DSS mice
[9] = acute DSS colitis, compared with untreated DSS mice

| Compound | hemorrhoid inflammation symptoms [1] | colon histology (H&E), in words [2] | Hist score (histological score) [2] | FOB (fecal occult blood) [2] | Weight [2] | DAI (disease active index) [2] | Col Length (colon length) [2] | Col Length (colon length) [3] | DAI (disease active index) [3] | FOB (fecal occult blood) [3] | Hist score (histological score) [3] | Weight [3] | DAI, in words [3, 8] | histological index / histological score, in words [3, 8] | fecal occult blood, in words [3, 8] | damage of articular cartilage, meniscus and bone structure of knee joints [4] | histology of psoriasis skin lesions (HE) [5] | DAI, in words [6] | histological score, in words [6] | psoriasis and eczema (psoriasis and eczema) | further results |
| --- | --- | --- | --- | --- | --- | --- | --- | --- | --- | --- | --- | --- | --- | --- | --- | --- | --- | --- | --- | --- | --- |
| CN(C)C(=O)Oc1cc(OC(=O)N(C)C)cc([C@@H](O)CNC(C)(C)C)c1 [R-B, R-bambuterol] | significantly alleviated | greatly improved | 5 ± 0.5 | 1 ± 0.5 | 92 ± 3.3 | 6 | 7.2 ± 0.2^ | 7.9 ± 0.3 | 6 | 1.1 ± 0.5 | 4 ± 1 | 112 ± 0.6 | significantly improved | significantly improved; also recorded: significantly ameliorated | significantly reduced | significantly ameliorated | mostly recovered | return toward normal | return toward normal |  | perianal manifestations (erythema, abscesses, ulcers) (TNBS-induced colitis; TNBS treated mice): significantly alleviated |
| CC(C)(C)NC[C@H](O)c1cc(Cl)c(N)c(Cl)c1 [R-C, R-clenbuterol] | significantly alleviated | greatly improved | 4.5 ± 0.5^ | 2 ± 0.5 | 89 ± 2.0 | 5 | 7 ± 0.7 |  |  |  |  |  | significantly improved | significantly improved |  |  |  |  |  | significantly ameliorate | submucosa fibrosis and narrowing of intestinal lumen (TNBS-induced colitis; TNBS treated mice): not seen; weight loss, diarrhea, colon length versus normal control mice (TNBS-induced colitis; oral administration): No significant different; disease condition of TNBS colitis, in words (TNBS-induced colitis; oral administration (R-enantiomers)): great ameliorated; symptoms of acne, maliaria, hives and eczema [7]: significantly alleviated |
| CC(C)(C)NC[C@H](O)c1cc(O)cc(O)c1 [R-T, R-terbutaline] |  | greatly improved | 6.0 ± 1^ | 2 ± 0 | 88 ± 1.7 | 8 | 6.6 ± 0.3 |  |  |  |  |  | significantly improved | significantly improved |  |  |  |  |  | significantly ameliorate | symptoms of acne, maliaria, hives and eczema [7]: significantly alleviated |
| CC(C)(C)NC[C@@H](O)c1ccc(O)c(CO)c1 [S-S, S-salbutamol] |  | no signs of improvements | 7.9 ± 0.5 | 4.5 ± 0.5 | 80 ± 2.3 | 13 | 6.0 ± 0.9 | 6.5 ± 0.9 | 13 | 4.5 ± 0.3 | 7.7 ± 0.5 | 95 ± 0.8 | much worse | markedly higher than untreated DSS mice | more severe | exacerbated | worsened the psoriasis histology | markedly higher than untreated DSS group | markedly higher than untreated DSS group |  | toxic effects on the bowel ([2]; S-enantiomers in DSS mice): toxic to the bowel; effects in prevent and treatment of DSS induced IBD, in words ([2]; acute DSS colitis): no amelioration or therapeutic effects at all; DAI, in words [2, 9]: significantly exacerbated; FOB, in words [2, 9]: significantly worsened; histological score, in words [2, 9]: significantly higher than untreated DSS mice; length of colon-rector / shortening of large bowel, in words [2, 9]: further shortened; length of colon-rectors, in words ([3]; sub-acute DSS colitis, compared with untreated DSS mice): shorter; body weights, in words ([3]; sub-acute or chronic DSS colitis): lower |
